Reference: publication PMC4274051 (Nature, 2013)

Target: K-Ras(G12C) (Homo sapiens, UniProt P01116, G12C)
Assay: disulphide tethering, intact protein mass spectrometry
Assay type: binding

Chain of K-Ras(G12C) (P01116 1-169 isoform P01116-2 G12C): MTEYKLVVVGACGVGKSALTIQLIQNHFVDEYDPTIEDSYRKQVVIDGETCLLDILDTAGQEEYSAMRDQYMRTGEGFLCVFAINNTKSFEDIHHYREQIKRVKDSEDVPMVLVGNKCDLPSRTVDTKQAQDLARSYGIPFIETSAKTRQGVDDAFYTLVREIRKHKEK

- % modification: 94 ± 1 % modification
SMILES: CN(C)CCSSCCNC(=O)C1CCN(C(=O)CSc2ccc(Cl)cc2)CC1 [6H05]
